Laboratory results from US4146719A, “Piperazinyl derivatives of quinoline carboxylic acids” (priority 1977, dated 1979).
Converted amounts (≈) assume the structure as drawn.

Assays:
[1] = system: Staphylococcus aureus 209P; assay: Antibacterial activity in vitro, M.I.C., agar dilution streak method; format: cell-based; details: Gram +
[2] = system: Mycobacterium phlei IFO 3142; assay: as above; format: cell-based; details: Gram +
[3] = system: Streptococcus pyogenes IID 692; assay: as above; format: cell-based; details: Gram +
[4] = system: Str. faecalis IID 682; assay: as above; format: cell-based; details: Gram +
[5] = system: Neisseria perflava IID 856; assay: as above; format: cell-based
[6] = system: E. coli ATCC 10536; assay: as above; format: cell-based, Escherichia coli
[7] = system: Corynebacterium pyogenes IID 548; assay: as above; format: cell-based; details: Gram +
[8] = system: Pseudomonas aeruginosa V-1; assay: as above; format: cell-based; details: Gram -
[9] = system: Sta. aureus ATCC 14775; assay: as above; format: cell-based, Staphylococcus aureus; details: Gram +
[10] = system: Escherichia coli NIHJ; assay: as above; format: cell-based
[11] = system: Ps. aeruginosa IID 1210; assay: as above; format: cell-based, Pseudomonas aeruginosa; details: Gram -
[12] = system: Bacillus subtilis PCI 219; assay: as above; format: cell-based; details: Gram +
[13] = system: Proteus vulgaris IFO 3167; assay: as above; format: cell-based; details: Gram -
[14] = system: Str. pyogenes S-8; assay: as above; format: cell-based, Streptococcus pyogenes; details: Gram +
[15] = system: My. smegmatis IFO 3083; assay: as above; format: cell-based; details: Gram +
[16] = system: Diplococcus pneumoniae IID 552; assay: as above; format: cell-based; details: Gram +
[17] = system: Pr. vulgaris XK Denken; assay: as above; format: cell-based, Proteus vulgaris; details: Gram -
[18] = system: Haemophilus influenzae IID 986; assay: as above; format: cell-based; details: Gram -
[19] = system: Klebsiella pneumoniae IFO 3512; assay: as above; format: cell-based
[20] = system: Ps. aeruginosa IID 1130; assay: as above; format: cell-based, Pseudomonas aeruginosa; details: Gram -
[21] = system: Salmonella enteritidis IID 604; assay: as above; format: cell-based; details: Gram -
[22] = system: Shigella sonnei IID 969; assay: as above; format: cell-based; details: Gram -
[23] = system: Ps. aeruginosa IFO 12689; assay: as above; format: cell-based, Pseudomonas aeruginosa; details: Gram -
[24] = system: gram-positive and gram-negative bacteria including Pseudomonas aeruginosa; assay: Antibacterial spectrum in vitro (summary in words); format: cell-based
[25] = Biliary excretion in rats after a single oral administration of 50 mg/kg; details: rat, in vivo, po, 50 mg/kg
[26] = system: Escherichia coli NIHJ JC-2; assay: Influence of rat bile on antibacterial activity; format: cell-based; details: bile of rats
Protocol: Nutrient agar was heated and melted. […] The diameter of the inhibition zone was measured.

[27] = system: Pseudomonas aeruginosa IID 1210; assay: Preventive effect against systemic infection with Pseudomonas aeruginosa in mice; format: in vivo, Pseudomonas aeruginosa; mice (ddY, male); details: Pseudomonas aeruginosa, IID1210, oral, challenge 3.5 × 10^4 cells/mouse
Protocol: Systemic infection was produced by inoculating male mice (strain: ddY, 6 weeks old, body weight: 28-33g) in intraperitoneally with Pseudomonas aeruginosa IID 1210 suspended in 0.5 ml of Brain heart infusion broth (Eiken) containing 5% mucin. […] Each of these test materials was administered to the mice twice, immediately after and then 6 hours after the inoculation, and the therapeutic effect of each compounds was judged from the survival rate.
(1) Miller L. C. and M. L. Tainter: Estimation of the ED50 and its error by means of logarithmic-probit graph paper Proc. Soc. Exp. Biol. Med. 57 261-264 (1944)
(2) Litchfield J. T. and F. Wilcoxon: A simplified method of evaluating dose - effect J. Pharmacol. 92 99-113 (1948)

[28] = system: Escherichia coli; assay: Concentration ratio in serum to M.I.C. after oral administration of 50 mg/kg in rats; format: in vivo, Escherichia coli; rats; details: rat, in vivo, po, 50 mg/kg
[29] = system: Escherichia coli NIHJ JC-2; assay: Preventive effect against ascending kidney infection in mice with Escherichia coli; format: in vivo, Escherichia coli; mice (ddY, female); details: Escherichia coli, NIHJJC2, 48 h, oral, 3 hours after inoculation, challenge 3.2 × 10^7 cells/mouse
Protocol: Ascending kidney infection was induced in female mice (strain: ddY, 6 weeks old, body weight: 22-26g), by instilling Escherlichia coli NIHJ JC-2 suspended in 0.04 ml of Tryptosoya broth (Nissan) into the urinary tract of mice anesthetized with sodium pentobarbital and by holding for 6 hours the mice in plastic tubes (diameter 25 mm) and clamping the outlet of urinary tract.
Each of these test material was orally administered 3 hours after inoculation. Mice were sacrificed 48 hours after inoculation. Kidneys were removed aseptically and bisected, and the two halves were pressed and streaked on agar plate containing Desoxycholate medium (Nissan). The therapeutic effect of each compound was evaluated from the absence of growth on the agar surface after 20 hours of incubation at 37° C.

**Q.** Which M.I.C. [1] does the source give for Gentamicin here?
**A.** Its M.I.C. is 0.10 µg/mL.

**Q.** What about the M.I.C. [2] of the same molecule?
**A.** The M.I.C. was 6.25 µg/mL.

**Q.** And the M.I.C. [3]?
**A.** Its M.I.C. is 6.25 µg/mL.

**Q.** What about the M.I.C. [4] of the same molecule?
**A.** The M.I.C. was 50 µg/mL.

**Q.** What about the M.I.C. ([5]; Gram -) of the same molecule?
**A.** Its M.I.C. is 0.78 µg/mL.

**Q.** What about the M.I.C. ([6]; Gram -) of the same molecule?
**A.** The M.I.C. was 0.39 µg/mL.

**Q.** What about the M.I.C. [7] of the same molecule?
**A.** Its M.I.C. is 0.78 µg/mL.

**Q.** And the M.I.C. [8]?
**A.** Its M.I.C. is 0.78 µg/mL.

**Q.** And the M.I.C. [9]?
**A.** The M.I.C. was 0.10 µg/mL.

**Q.** And the M.I.C. ([10]; Gram -)?
**A.** The M.I.C. was 0.39 µg/mL.

**Q.** What about the M.I.C. [11] of the same molecule?
**A.** The M.I.C. was 12.5 µg/mL.

**Q.** And the M.I.C. [12]?
**A.** The M.I.C. was 0.10 µg/mL.

**Q.** And the M.I.C. [13]?
**A.** The M.I.C. was 0.20 µg/mL.

**Q.** What about the M.I.C. [14] of the same molecule?
**A.** The M.I.C. was 6.25 µg/mL.

**Q.** What about the M.I.C. [15] of the same molecule?
**A.** The M.I.C. was 0.20 µg/mL.

**Q.** And the M.I.C. [16]?
**A.** The M.I.C. was 12.5 µg/mL.

**Q.** And the M.I.C. [17]?
**A.** The M.I.C. was 0.10 µg/mL.

**Q.** And the M.I.C. [18]?
**A.** Its M.I.C. is 1.56 µg/mL.

**Q.** What about the M.I.C. ([19]; Gram -) of the same molecule?
**A.** The M.I.C. was 0.20 µg/mL.

**Q.** What about the M.I.C. [20] of the same molecule?
**A.** Its M.I.C. is 3.13 µg/mL.

**Q.** What about the M.I.C. [21] of the same molecule?
**A.** Its M.I.C. is 1.56 µg/mL.

**Q.** And the M.I.C. [22]?
**A.** Its M.I.C. is 0.78 µg/mL.

**Q.** And the M.I.C. [23]?
**A.** Its M.I.C. is 12.5 µg/mL.

**Q.** Which results are given for `CCn1cc(C(=O)O)c(=O)c2cnc(N3CCNCC3)nc21` [Pipemidic acid]?
**A.** MIC ([1]; Staphylococcus aureus, 209P, read-out: M.I.C.): 25 µg/mL (≈ 82.4 µM); MIC ([2]; Mycolicibacterium phlei, IFO3142, read-out: M.I.C.): 12.5 µg/mL (≈ 41.2 µM); antibacterial activity (in words) [24]: inactive on many strains of gram-positive bacteria and many Pseudomonas aeruginosa strains; MIC ([3]; Streptococcus pyogenes, IID692, read-out: M.I.C.): > 100 µg/mL; concentration at 3 h [25]: 27400 ± 2600 ng/mL; concentration at 6 h [25]: 22600 ± 1700 ng/mL; concentration at 24 h [25]: 10200 ± 1200 ng/mL; concentration at 27 h [25]: < 2000 ng/mL; dose excreted at 3 h [25]: 0.6 ± 0.07%; dose excreted at 6 h [25]: 1.01 ± 0.1%; dose excreted at 24 h [25]: 1.97 ± 0.09%; dose excreted at 27 h [25]: 1.97 ± 0.09%; MIC ([5]; Neisseria perflava, IID856): 1.56 µg/mL (≈ 5.14 µM); MIC ([6]; Escherichia coli, ATCC10536): 1.56 µg/mL (≈ 5.14 µM); MIC ([7]; Corynebacterium pyogenes, IID548): 100 µg/mL; antibacterial activity in presence of bile (in words) [26]: not influenced by bile of rats; MIC ([8]; Pseudomonas aeruginosa, V1, read-out: M.I.C.): 12.5 µg/mL (≈ 41.2 µM); ED50 ([27]; twice (immediately and 6 hours after inoculation), read-out: ED50 (95% confidence limit)): 400 mg/kg; ED90 ([27]; twice, read-out: ED90): 1120 mg/kg; MIC ([9]; Staphylococcus aureus, ATCC14775, read-out: M.I.C.): 100 µg/mL (≈ 330 µM); serum concentration / M.I.C. ratio (in words) [28]: smaller than that of the compound (II); time for which serum levels were maintained [28]: ≤ 2 h; MIC ([10]; Escherichia coli): 1.56 µg/mL (≈ 5.14 µM); MIC ([11]; Pseudomonas aeruginosa, IID1210, read-out: M.I.C.): 50 µg/mL (≈ 165 µM); MIC ([12]; Bacillus subtilis, PCI219, read-out: M.I.C.): 6.25 µg/mL (≈ 20.6 µM); MIC ([13]; Proteus vulgaris, IFO3167, read-out: M.I.C.): 3.13 µg/mL (≈ 10.3 µM); MIC ([14]; Streptococcus pyogenes, S8, read-out: M.I.C.): > 100 µg/mL; MIC ([15]; Mycolicibacterium smegmatis, IFO3083, read-out: M.I.C.): 50 µg/mL (≈ 165 µM); ED50 ([29]; read-out: ED50 (95% confidence limit)): 74 mg/kg; ED90 ([29]; read-out: ED90): 235 mg/kg; MIC ([16]; Streptococcus pneumoniae, IID552, read-out: M.I.C.): > 100 µg/mL; MIC ([17]; Proteus vulgaris, read-out: M.I.C.): 6.25 µg/mL (≈ 20.6 µM); MIC ([18]; Haemophilus influenzae, IID986, read-out: M.I.C.): 3.13 µg/mL (≈ 10.3 µM); MIC ([19]; Klebsiella pneumoniae, IFO3512): 1.56 µg/mL (≈ 5.14 µM); MIC ([20]; Pseudomonas aeruginosa, IID1130, read-out: M.I.C.): 25 µg/mL (≈ 82.4 µM); MIC ([21]; Salmonella enterica, read-out: M.I.C.): 12.5 µg/mL (≈ 41.2 µM); MIC ([22]; Shigella sonnei, IID969): 1.56 µg/mL (≈ 5.14 µM); MIC ([23]; Pseudomonas aeruginosa, IFO12689, read-out: M.I.C.): 25 µg/mL (≈ 82.4 µM)
